Patent US9884063B2, “Amido-substituted azole compounds” (Bayer Pharma Aktiengesellschaft, priority 2014, dated 2018)

What was measured:
[1] = tested on: HEK293 FOP control reporter cell line; assay: HEK293 FOP Assay (FOP control vector luciferase reporter); format: cell-based; conditions: Homo sapiens; HEK293 FOP control reporter cell line, 16 hours incubation, compound dilution series 50 μM to 15 nM
Summary of the method: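 Stable HEK293 line carrying the FOP vector (randomized, non-functional TCF sites; Geneticin-selected) was run in parallel with the TOP line. Cells were plated 24 h ahead at 10000/well and given recombinant human Wnt-3a at 2500–5 ng/ml. Compounds were tested at 50 μM–15 nM (3.16-fold steps) in CAFTY buffer, pH 7.4, with 2 mM Ca2+ and 0.01% BSA.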

TNKS1 = target: T1, TNKS1 (Homo sapiens, UniProt O95271); assay: Modified TNKS1 Assay 3 (BPS kit #80573, biotin-NAD+, 96 well); format: biochemical; conditions: human TNKS1, BPS kit #80573, 96 well
T1 sequence (O95271 1-1327): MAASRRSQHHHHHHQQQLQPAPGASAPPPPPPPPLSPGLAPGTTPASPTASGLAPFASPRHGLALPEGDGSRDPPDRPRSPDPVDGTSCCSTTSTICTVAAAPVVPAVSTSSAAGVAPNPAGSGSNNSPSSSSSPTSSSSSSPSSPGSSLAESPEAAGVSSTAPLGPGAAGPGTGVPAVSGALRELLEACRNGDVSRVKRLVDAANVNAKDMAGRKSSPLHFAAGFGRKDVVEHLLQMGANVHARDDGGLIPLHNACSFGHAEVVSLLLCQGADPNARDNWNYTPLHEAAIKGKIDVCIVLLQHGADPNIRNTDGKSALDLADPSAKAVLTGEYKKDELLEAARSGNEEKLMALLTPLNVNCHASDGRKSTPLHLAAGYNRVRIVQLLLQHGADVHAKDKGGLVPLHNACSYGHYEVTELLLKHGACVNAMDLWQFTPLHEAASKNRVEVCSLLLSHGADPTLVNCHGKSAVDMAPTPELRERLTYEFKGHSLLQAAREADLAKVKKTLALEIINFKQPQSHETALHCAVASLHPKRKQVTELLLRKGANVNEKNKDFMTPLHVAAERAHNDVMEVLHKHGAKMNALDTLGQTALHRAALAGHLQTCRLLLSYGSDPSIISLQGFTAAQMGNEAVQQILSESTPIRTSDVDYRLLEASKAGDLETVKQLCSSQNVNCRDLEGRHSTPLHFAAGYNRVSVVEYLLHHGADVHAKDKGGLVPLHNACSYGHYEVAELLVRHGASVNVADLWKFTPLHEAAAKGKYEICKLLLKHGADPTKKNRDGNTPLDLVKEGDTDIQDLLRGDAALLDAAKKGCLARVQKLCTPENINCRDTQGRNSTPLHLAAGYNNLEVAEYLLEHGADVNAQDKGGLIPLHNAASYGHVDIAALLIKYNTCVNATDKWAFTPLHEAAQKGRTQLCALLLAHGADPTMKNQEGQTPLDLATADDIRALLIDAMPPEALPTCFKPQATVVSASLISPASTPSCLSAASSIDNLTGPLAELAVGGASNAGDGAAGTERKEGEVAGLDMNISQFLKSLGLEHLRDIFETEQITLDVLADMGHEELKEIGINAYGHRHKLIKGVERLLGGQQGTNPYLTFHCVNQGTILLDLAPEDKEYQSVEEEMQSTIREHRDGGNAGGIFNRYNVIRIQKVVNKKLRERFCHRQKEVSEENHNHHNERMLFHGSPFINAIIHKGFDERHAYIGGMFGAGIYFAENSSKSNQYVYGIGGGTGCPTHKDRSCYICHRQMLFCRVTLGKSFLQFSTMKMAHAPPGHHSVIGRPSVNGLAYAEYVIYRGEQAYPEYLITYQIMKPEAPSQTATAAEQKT
Summary of the method: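 Chemiluminescent assay of TNKS1-catalysed ribosylation of a protein substrate with biotin-labelled NAD+, detected via streptavidin-HRP; run per kit protocol. Inhibition lowers the signal, and IC50 is the compound concentration halving the normalised readout.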

| Compound | IC50 (TNKS1) [nM] | IC50 [1] [nM] |
| --- | --- | --- |
| CNC(=O)c1[nH]c(C)nc1C(=O)Nc1ccc(NC(=O)c2ccc(F)cc2Cl)cc1 [Example 65, N^4-{4-[(2-chloro-4-fluorobenzoyl)amino]phenyl}-N^5,2-dimethyl-1H-imidazole-4,5-dicarboxamide] | 160 | 9500 |
| O=C(Nc1ccc(NC(=O)c2[nH]cnc2C(=O)NCCC2CC2)cc1)c1cc(F)c(F)cc1Cl [Example 49, N^5-{4-[(2-chloro-4,5-difluorobenzoyl)amino]phenyl}-N^4-(2-cyclopropylethyl)-1H-imidazole-4,5-dicarboxamide] | > 500 | 17000 |
| O=C(Nc1ccc(NC(=O)c2nc[nH]c2C(=O)NCCCN2CCCC2)cc1)c1ccc(F)cc1Cl [Example 274, N^4-{4-[(2-chloro-4-fluorobenzoyl)amino]phenyl}-N^5-[3-(pyrrolidin-1-yl)propyl]-1H-imidazole-4,5-dicarboxamide] | 10 | 45000 |
| CCN1CCC[C@H]1CNC(=O)c1nc[nH]c1C(=O)Nc1ccc(NC(=O)c2ccc(F)cc2Cl)cc1 [Example 404, N^5-{4-[(2-chloro-4-fluorobenzoyl)amino]phenyl}-N^4-{[(2S)-1-ethylpyrrolidin-2-yl]methyl}-1H-imidazole-4,5-dicarboxamide] | 1 | 29000 |
| O=C(Nc1ccc(NC(=O)c2nc[nH]c2C(=O)NCC2CCCO2)cc1)c1ccc(F)cc1Cl (stereo not drawn) [Example 237, N^4-{4-[(2-chloro-4-fluorobenzoyl)amino]phenyl}-N^5-(tetrahydrofuran-2-ylmethyl)-1H-imidazole-4,5-dicarboxamide] | > 500 |  |
| O=C(Nc1ccc(NC(=O)c2nc[nH]c2C(=O)N2CCC2)cc1)c1ccc(F)cc1Cl [Example 142, 5-(azetidin-1-ylcarbonyl)-N-{4-[(2-chloro-4-fluorobenzoyl)amino]phenyl}-1H-imidazole-4-carboxamide] | 190 |  |
| NC(=O)c1nc[nH]c1C(=O)Nc1ccc(NC(=O)c2ccccc2Cl)cc1 [Example 120, N^5-{4-[(2-chlorobenzoyl)amino]phenyl}-1H-imidazole-4,5-dicarboxamide] | > 500 |  |
| O=C(Nc1ccc(NC(=O)c2nc[nH]c2C(=O)NCC(F)F)cc1)c1ccc(F)cc1Cl [Example 139, N^4-{4-[(2-chloro-4-fluorobenzoyl)amino]phenyl}-N^5-(2,2-difluoroethyl)-1H-imidazole-4,5-dicarboxamide] | 290 |  |

Continued, in another order:

| IC50 (TNKS1) [nM] | Compound | IC50 [1] [nM] |
| --- | --- | --- |
| 260 | CNC(=O)c1nc[nH]c1C(=O)Nc1ccc(NC(=O)c2ccc(C#N)cc2F)cc1 [Example 369, N^5-{4-[(4-cyano-2-fluorobenzoyl)amino]phenyl}-N^4-methyl-1H-imidazole-4,5-dicarboxamide] |  |
| > 500 | O=C(Nc1ccc(NC(=O)c2nc[nH]c2C(=O)NCCO)cc1)c1ccc(F)cc1Cl [Example 132, N^4-{4-[(2-chloro-4-fluorobenzoyl)amino]phenyl}-N^5-(2-hydroxyethyl)-1H-imidazole-4,5-dicarboxamide] |  |
| > 500 | O=C(Nc1ccc(NC(=O)c2nc[nH]c2C(=O)NCC2CC2)cc1)c1ccc(F)cc1Cl [Example 128, N^4-{4-[(2-chloro-4-fluorobenzoyl)amino]phenyl}-N^5-(cyclopropylmethyl)-1H-imidazole-4,5-dicarboxamide] |  |
| > 500 | CC(C)(O)CNC(=O)c1[nH]cnc1C(=O)Nc1ccc(NC(=O)c2ccc(F)cc2Cl)cc1 [Example 223, N^4-{4-[(2-chloro-4-fluorobenzoyl)amino]phenyl}-N^5-(2-hydroxy-2-methylpropyl)-1H-imidazole-4,5-dicarboxamide] |  |
| > 500 | CNC(=O)c1nc[nH]c1C(=O)Nc1ccc(NC(=O)c2ccccc2Cl)c(OC)c1 [Example 99, N^5-{4-[(2-chlorobenzoyl)amino]-3-methoxyphenyl}-N^4-methyl-1H-imidazole-4,5-dicarboxamide] |  |
| > 500 | CNC(=O)c1nc[nH]c1C(=O)Nc1ccc(NC(=O)c2ccc(OC)cc2Cl)cc1 [Example 246, N^5-{4-[(2-chloro-4-methoxybenzoyl)amino]phenyl}-N^4-methyl-1H-imidazole-4,5-dicarboxamide] |  |
